The results in this text go back to patent EP0965346A2, “Use of acetylated mannan derivatives for treating chronic respiratory diseases” (CARRINGTON LABORATORIES, INC., priority 1991, dated 1993).

Assay [1] deals with HIV. In words: Phase II double-blind study of acemannan alone and with AZT. Format: in vivo. Particulars: ARC patients, 24 weeks. On the procedure:
Forty-seven HIV+ patients (23 asymptomatic patients, 24 ARC patients) participated in a double-blind randomized phase II study of acemannan. The protocol was approved by the relevant ethical committees of the Hospital St. Pierre in Brussels, Belgium. In order to evaluate safety and tolerance, with or without concomitant AZT therapy, acemannan was administered during 24 weeks at a daily dose of 1000 mg (2 capsules of 125 mg, 4 times daily). The 23 asymptomatic patients were blindly allocated to receive either acemannan (11 patients, group 1) or placebo (12 patients, group 2). Of the 24 ARC patients who received 1000 mg AZT daily during the study, 12 patients (group 3) also received acemannan 1000 mg (2 capsules of 125 mg, 4 times daily) and 12 patients (group 4) also received placebo.

Assay [2] relates to HTLV-IIIB strain of HIV-1. In words: Viability (MTT) of HIV-1-infected MT-2 cells, AZT-acemannan checkerboard. It counts as cell-based. On the procedure:
Virus Strains - The HTLV-IIIB strain of HIV-1 was obtained from Dr. R. Gallo, NIH, Bethesda, Maryland. Viral stocks were prepared by propagating the virus in H9 lymphoid cells. A stock preparation of the virus was stored at -80°C. The 50% tissue culture infective dose (TCID50)/ml of cell-free virus pool stock was determined by end-point titration using MT-2 cells. Multiplicity of infection (MOI) was determined by the method of Reed and Muench.
Cell Lines - MT-2 cells were propagated in RPMI-1640 supplemented with 2 mM L-glutamine and 15% (v/v) fetal bovine serum. MT-2 cells naturally express CD4 on their surface and are thus good target cells for HIV-1 infection. In addition, they rapidly undergo cytolysis at low levels of virus replication.
Primary testing of antiviral activity - MT-2 cells were first treated with polybrene (2 mg/ml) for 30 min and then infected with HIV at a MOI of 0.03. After virus absorption, the cells were pelleted and resuspended in complete medium. […] Parallel assays were performed in triplicate, and drug cytotoxicity was measured at parallel concentrations in duplicate. […] On day 7 post-infection, cell viability was measured by the addition of MTT (450 µg/ml) to the test plates. […] Plates were read at a wavelength of 570 nm on a Vmax plate reader (Molecular Devices, Inc.). The percent change in cell viability was calculated using the following formula: % change in cell viability =((TI-TO)-(OI-TO))/((OO-TO)-(OI-TO))x 100 [formula] where: • TI is the optical density (OD) in treated, infected cells, • TO is the OD in treated, uninfected cells, • OI is the OD in untreated, infected cells, and • OO is the OD in untreated, uninfected cells.
Antiviral activity of acemannan-AZT combinations - Antiviral activity of acemannan in combination with AZT at various concentrations was evaluated using the microtiter infection assay described above. […] Combinations were evaluated in duplicate, and treated uninfected controls were used to determine drug cytotoxicity. Each compound was also evaluated alone at non-cytotoxic concentrations. […]

Turning to `Cc1cn([C@H]2C[C@H](N=[N+]=[N-])[C@@H](CO)O2)c(=O)[nH]c1=O` [AZT, Zidovudine], the “patients who developed AIDS” value in assay [1] (12 per group) was 2 patients. For the same compound, the “mean Karnofsky score at exit” value in assay [1] (AZT 1000 mg daily, acemannan 1000 mg daily, entry 84 (combination), 81 (AZT alone)) is listed as 83. The “mean CD4 at exit” value in assay [1] (entry 263/mm3 (combination), 145/mm3 (AZT alone)) was 252 /mm3. The protection entry is recorded as “neither of which was protective on its own” in assay [2] (0.01 µg/ml AZT alone) and 65% in assay [2] (0.32 µg/ml AZT alone). In addition, the maximum protection in assay [2] (AZT alone, 0.03 to 0.32 µg/ml, MOI 0.03) is given as 60-67%.
